In patent US10106526B2, “Inhibitors of cyclin-dependent kinase 7 (CDK7)” (SYROS PHARMACEUTICALS, INC., priority 2014, dated 2018):

Experiments:
A673 cells = test: Inhibition of proliferation of A673 cells (CyQUANT, 72 hour); type: cell-based, human; conditions: 72 hour proliferation
Procedure, shortened: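 Human Ewing's sarcoma A673 cells in DMEM + 10% FBS + 1 mM sodium pyruvate, 37 °C, 5% CO2, exposed to compounds from 4 μM to 126.4 pM (0.5 log dilutions) for 72 h. Proliferation read by CyQUANT; IC50 reported as binned categories.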

CDK7 = target: T1, CDK7 (Homo sapiens, UniProt P50613); test: CDK7 kinase activity, Adapta kinase assay (Life Technologies); type: biochemical; conditions: Adapta kinase assay at Life Technologies; 10 μM down to 0.514 nM, 3-fold serial dilutions; read-out: CDK7 Inhibition (IC50)
T1 construct: purchased Life Technologies (Adapta kinase assay service)
Procedure, shortened: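 Adapta kinase activity assay run as a commercial service; substrates not specified here. Compounds tested in 3-fold serial dilutions from 10 μM down to 0.514 nM.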

[1] = target: CDK7/Cyclin H/MAT1 trimeric complex (Homo sapiens, UniProt P50613); test: CDK7 kinase assay, Caliper/LabChip EZ Reader (Biortus Biosciences); type: biochemical; conditions: CDK7/Cyclin H/MAT1 10 nM, ATP 2 mM, FAM-CDK7tide 2 μM, 30 min incubation, read-out: CDK7 Inhibition (IC50)
Experimental: Compounds of the invention were further assayed for CDK7 activity at Biortus Biosciences (Jiangyin, Jiangsu Province, P.R. of China) using a CDK7 kinase assay developed with a Caliper/LabChip EZ Reader (Perkin Elmer, Waltham, Mass.). […] The incubation period was chosen such that the total fraction of phosphorylated peptide product produced was <20% for the uninhibited kinase.

Jurkat cells = test: Inhibition of proliferation of Jurkat cells (CellTiter-Glo, 72 hour); type: cell-based, human; conditions: 10 μM to 316 pM
Procedure, shortened: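 Human T-cell leukemia Jurkat cells in RPMI 1640 with 10% FBS were exposed 72 h at 37 °C, 5% CO2 to compounds from 10 μM to 316 pM in 0.5-log steps. Anti-proliferative effect measured by CellTiter-Glo; IC50 reported in binned categories.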

CDK7/Cyclin H/MAT1 trimeric complex, sequence (P50613 whole entry): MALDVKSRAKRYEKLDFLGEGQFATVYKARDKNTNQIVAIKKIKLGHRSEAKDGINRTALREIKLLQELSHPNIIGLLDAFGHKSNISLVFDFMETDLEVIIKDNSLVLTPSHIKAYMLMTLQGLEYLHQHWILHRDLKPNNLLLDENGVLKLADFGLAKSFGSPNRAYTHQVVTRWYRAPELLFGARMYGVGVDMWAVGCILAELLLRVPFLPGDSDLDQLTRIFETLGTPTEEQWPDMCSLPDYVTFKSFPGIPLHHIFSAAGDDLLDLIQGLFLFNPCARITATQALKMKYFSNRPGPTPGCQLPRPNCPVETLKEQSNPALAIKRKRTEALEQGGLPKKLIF
CDK7/Cyclin H/MAT1 trimeric complex, sequence (P51946 whole entry partner): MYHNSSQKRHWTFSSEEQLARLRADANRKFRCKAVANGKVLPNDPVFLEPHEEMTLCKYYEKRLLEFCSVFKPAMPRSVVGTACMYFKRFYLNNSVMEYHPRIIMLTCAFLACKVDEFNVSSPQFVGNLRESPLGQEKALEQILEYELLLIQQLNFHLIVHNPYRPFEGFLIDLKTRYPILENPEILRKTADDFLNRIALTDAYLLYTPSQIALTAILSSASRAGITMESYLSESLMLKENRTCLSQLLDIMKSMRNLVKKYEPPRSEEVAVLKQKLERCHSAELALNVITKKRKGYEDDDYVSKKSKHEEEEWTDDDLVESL
CDK7/Cyclin H/MAT1 trimeric complex, sequence (P51948 whole entry partner): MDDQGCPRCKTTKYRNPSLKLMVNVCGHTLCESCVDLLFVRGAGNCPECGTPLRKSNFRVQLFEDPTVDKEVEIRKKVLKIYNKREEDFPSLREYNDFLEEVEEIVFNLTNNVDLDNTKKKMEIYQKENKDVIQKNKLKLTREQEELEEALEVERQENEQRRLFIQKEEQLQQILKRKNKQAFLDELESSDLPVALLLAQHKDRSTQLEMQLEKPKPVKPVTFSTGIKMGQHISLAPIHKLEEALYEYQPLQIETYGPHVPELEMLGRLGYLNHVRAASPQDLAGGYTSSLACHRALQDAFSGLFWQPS
T1 sequence (P50613 whole entry): as the sequence (P50613 whole entry) above
T1 sequence (P51946 whole entry partner): as the sequence (P51946 whole entry partner) above
T1 sequence (P51948 whole entry partner): as the sequence (P51948 whole entry partner) above

| Molecule | IC50 (A673 cells) [µM] | IC50 (CDK7) [µM] | IC50 [1] [µM] | IC50 (Jurkat cells) [µM] | IC50 (A673 cells; Homo sapiens) [µM] | IC50 (Jurkat cells; Homo sapiens) [µM] |
| --- | --- | --- | --- | --- | --- | --- |
| 4-trans-acrylamido-N-((1S,3R)-3-(5-chloro-4-(1H-indol-3-yl)pyrimidin-2-ylamino)cyclohexyl)cyclohexanecarboxamide [Compound 117] | < 0.5 | < 0.1 | < 0.1 | < 0.5 | – | – |
| C=CC(=O)N1CCC[C@H]1C(=O)N[C@H]1CCC[C@@H](Nc2ncc(Cl)c(-c3c[nH]c4ccccc34)n2)C1 [Compound 115, (S)-1-acryloyl-N-((1S,3R)-3-(5-chloro-4-(1H-indol-3-yl)pyrimidin-2-ylamino)cyclohexyl)pyrrolidine-2-carboxamide] | – | < 0.1 | < 0.1 | – | < 0.5 | < 0.5 |
| C=CC(=O)N1CCCC(C(=O)N[C@H]2CC[C@H](Nc3ncc(Cl)c(-c4c[nH]c5ccccc45)n3)CC2)C1 (stereo partly shown) [Compound 158, 1-acryloyl-N-((1r,4r)-4-(5-chloro-4-(1H-indol-3-yl)pyrimidin-2-ylamino)cyclohexyl)piperidine-3-carboxamide] | – | < 0.1 | < 0.1 | – | – | 0.5 to 5 |
| C=CC(=O)N1CCC[C@@H](C(=O)N[C@H]2CCC[C@@H](Nc3ncc(Cl)c(-c4c[nH]c5ccccc45)n3)C2)C1 [Compound 174, (R)-1-acryloyl-N-((1S,3R)-3-(5-chloro-4-(1H-indol-3-yl)pyrimidin-2-ylamino)cyclohexyl)piperidine-3-carboxamide] | – | < 0.1 | < 0.1 | – | < 0.5 | < 0.5 |
| C=CC(=O)N1CCC(NC[C@H]2CCC[C@@H](Nc3ncc(Cl)c(-c4c[nH]c5ccccc45)n3)C2)CC1 [Compound 127, 1-[4-[[(1S,3R)-3-[[5-chloro-4-(1H-indol-3-yl)pyrimidin-2-yl]amino]cyclohexyl]methylamino]-1-piperidyl]prop-2-en-1-One] | – | < 0.1 | < 0.1 | – | < 0.5 | > 5 |
| C=CC(=O)N1CCC2(CC1)CN([C@H]1CCC[C@@H](Nc3ncc(Cl)c(-c4c[nH]c5ccccc45)n3)C1)C(=O)O2 [Compound 186] | < 0.5 | < 0.1 | < 0.1 | 0.5 to 5 | – | – |
| C=CC(=O)N1CCC[C@@H]1C(=O)N[C@H]1CCC[C@@H](Nc2ncc(Cl)c(-c3c[nH]c4ccccc34)n2)C1 [Compound 173, (R)-1-acryloyl-N-((1S,3R)-3-(5-chloro-4-(1H-indol-3-yl)pyrimidin-2-ylamino)cyclohexyl)pyrrolidine-2-carboxamide] | – | < 0.1 | < 0.1 | – | – | 0.5 to 5 |
| C=CC(=O)Nc1cnc(C(=O)N[C@H]2CCC[C@@H](Nc3ncc(Cl)c(-c4c[nH]c5ccccc45)n3)C2)nc1 [Compound 112, 5-acrylamido-N-((1S,3R)-3-(5-chloro-4-(1H-indol-3-yl)pyrimidin-2-ylamino)cyclohexyl)pyrimidine-2-carboxamide] | – | < 0.1 | 0.1 to 1 | – | < 0.5 | > 5 |
| C=CC(=O)N1CCC(CN[C@H]2CCC[C@@H](Nc3ncc(Cl)c(-c4c[nH]c5ccccc45)n3)C2)CC1 [Compound 124, 1-(4-(((1S,3R)-3-(5-chloro-4-(1H-indol-3-yl)pyrimidin-2-ylamino)cyclohexylamino)methyl)piperidin-1-yl)prop-2-en-1-One] | – | < 0.1 | < 0.1 | – | – | > 5 |
| C=CC(=O)N1CCN(C2CCCC(Nc3ncc(Cl)c(-c4c[nH]c5ccccc45)n3)C2)CC1C (stereo not shown) [Compound 232] | < 0.5 | < 0.1 | < 0.1 | < 0.5 | – | – |
| C=CC(=O)N1CC(N(C)[C@H]2CCC[C@@H](Nc3ncc(Cl)c(-c4c[nH]c5ccccc45)n3)C2)C1 [Compound 224] | – | < 0.1 | < 0.1 | – | – | > 5 |
| CN(C)C/C=C/C(=O)N1CCC(O)(CN(C)[C@H]2CCC[C@@H](Nc3ncc(Cl)c(-c4c[nH]c5ccccc45)n3)C2)CC1 [Compound 228] | < 0.5 | < 0.1 | < 0.1 | 0.5 to 5 | – | – |
| O=C(NC1CCCC(Nc2ncc(Cl)c(-c3cnn4ccccc34)n2)C1)C1CCN(C(=O)C=CCN2CCN(C3CC3)CC2)CC1 (stereo not shown) [Compound 223] | – | < 0.1 | < 0.1 | > 5 | – | – |
| C=CC(=O)N1CCC(NC[C@@H]2CCC[C@H](Nc3ncc(Cl)c(-c4c[nH]c5ccccc45)n3)C2)CC1 [Compound 212, 1-[4-[[(1R,3S)-3-[[5-chloro-4-(1H-indol-3-yl)pyrimidin-2-yl]amino]cyclohexyl]methylamino]-1-piperidyl]prop-2-en-1-One] | – | < 0.1 | < 0.1 | – | < 0.5 | > 5 |
| CC1CN(C2CCCC(Nc3ncc(Cl)c(-c4c[nH]c5ccccc45)n3)C2)CCN1C(=O)C=CCN(C)C (stereo not shown) [Compound 230] | < 0.5 | < 0.1 | < 0.1 | 0.5 to 5 | – | – |
| C=CC(=O)N1CCN(C2CCCC(Nc3ncc(Cl)c(-c4c[nH]c5ccccc45)n3)C2)CC1C (stereo not shown) [Compound 229] | < 0.5 | < 0.1 | < 0.1 | 0.5 to 5 | – | – |
| CN(C)C/C=C/C(=O)Nc1ccc(C(=O)N[C@H]2CCC[C@@H](Nc3ncc(C#N)c(-c4c[nH]c5ccccc45)n3)C2)nc1 [Compound 110, N-((1S,3R)-3-(5-cyano-4-(1H-indol-3-yl)pyrimidin-2-ylamino)cyclohexyl)-5-((E)-4-(dimethylamino)but-2-enamido)picolinamide] | – | < 0.1 | < 0.1 | – | < 0.5 | < 0.5 |
| CN(C)C/C=C/C(=O)N1CCC(C(=O)N2CC[C@@H](Nc3ncc(Cl)c(-c4c[nH]c5ccccc45)n3)C2)CC1 [Compound 213, (E)-1-[4-[(3R)-3-[[5-chloro-4-(1H-indol-3-yl)pyrimidin-2-yl]amino]pyrrolidine-1-carbonyl]-1-piperidyl]-4-(dimethylamino)but-2-en-1-One] | – | < 0.1 | < 0.1 | – | < 0.5 | > 5 |
| CN(C)C/C=C/C(=O)Nc1cnc(C(=O)N[C@H]2CCC[C@@H](Nc3ncc(Cl)c(-c4c[nH]c5ccccc45)n3)C2)nc1 [Compound 113, N-((1S,3R)-3-(5-chloro-4-(1H-indol-3-yl)pyrimidin-2-ylamino)cyclohexyl)-5-((E)-4-(dimethylamino)but-2-enamido)pyrimidine-2-carboxamide] | – | < 0.1 | < 0.1 | – | < 0.5 | < 0.5 |
| CN(C)CC=CC(=O)N1CCN(C2CCCC(Nc3ncc(Cl)c(-c4c[nH]c5ccccc45)n3)C2)CC1 (stereo not shown) [Compound 237] | < 0.5 | < 0.1 | < 0.1 | < 0.5 | – | – |
| C=CC(=O)N1CCC(C(=O)N[C@H]2CCC[C@@H](Nc3ncc(Cl)c(-c4c[nH]c5ccccc45)n3)C2)CC1 [Compound 118, 1-acryloyl-N-((1S,3R)-3-(5-chloro-4-(1H-indol-3-yl)pyrimidin-2-ylamino)cyclohexyl)piperidine-4-carboxamide] | – | < 0.1 | < 0.1 | – | < 0.5 | < 0.5 |
